Results on eight molecules are retold here after US20260242416A1, “ANTIMICROBIAL PEPTIDES” (priority 2023, published 2026).

Where a SMILES comes first, the peptide text is derived from it.

This assay relates to E. coli ATCC 25922, Salmonella Enteritidis, S. aureus ATCC 29213. Nature of the assay: Broth microdilution, panel result (at least one / all strains), Example 2. In kind it is cell-based. Also on record: key to inhibitory activity (asterisk): *Indicates inhibitory activity. As to conditions: Table 14; against at least one of E. coli ATCC 25922, Salmonella Enteritidis, S. aureus ATCC 29213. As to the method:
The antimicrobial activity of the putative AMPs was determined by a broth microdilution assay as described by the Clinical and Laboratory Standards Institute, with the published adaptations for testing of cationic peptides. Escherichia coli 25922 and Staphylococcus aureus 29213 isolates were purchased from the American Type Culture Collection (ATCC; Manassas, VA, USA). A human clinical isolate of Salmonella enterica serovar Enteritidis was provided by the BC Centre for Disease Control. Bacteria from stocks stored at −80° C. were streaked onto nonselective Columbia blood agar with 5% sheep blood (Oxoid) and incubated overnight at 37° C. Next, 2-4 colonies were streaked onto a new agar plate to ensure uniform health of colonies used in the broth microdilution assay. Isolated colonies were suspended in MHB and the optical density was measured with a spectrophotometer to create an initial inoculum concentration of approximately 1×10^8 cfu/mL. The inoculum was diluted 1:250 to a final concentration of 2-8×10^5 cfu/mL, which was confirmed by performing a Total Viability Count (TVC). The TVC consisted of plating a 1:1000 dilution of the final inoculum on nonselective media and was also used to confirm the health and purity of the inoculum in each trial.
Lyophilized 80 μg peptide aliquots synthesized by GenScript (Piscataway, NJ, USA) were resuspended to 1.28 mg/mL with UltraPure water (Thermo Fisher Scientific, Waltham, MA, USA) and serially diluted in polypropylene 96-well microtiter plates (Greiner Bio-One #650261, Kremsmunster, Austria) from 128 down to 0.5 μg/mL. Two columns per plate were reserved for growth and sterility controls. Inoculum was added to the wells containing the peptide and the growth control. Plates were incubated for 20-24 h at 37° C. The minimum inhibitory concentration (MIC) was determined as the lowest peptide concentration where there was no visible bacterial growth.
For orientation: Broth dilution looks for growth in wells or tubes with falling amounts of substance.

Consider `CC[C@H](C)[C@H](NC(=O)[C@H](C)NC(=O)[C@H](CCCNC(=N)N)NC(=O)[C@@H](N)CCCNC(=N)N)C(=O)N[C@@H](Cc1ccccc1)C(=O)N[C@@H](C)C(=O)N[C@@H](CO)C(=O)N[C@H](C(=O)N[C@@H](CCCNC(=N)N)C(=O)NCC(=O)N[C@@H](Cc1ccc(O)cc1)C(=O)N[C@@H](CC(C)C)C(=O)NCC(=O)N[C@@H](CC(C)C)C(=O)N[C@@H](CCCNC(=N)N)C(=O)N[C@@H](CCCCN)C(=O)N[C@@H](CCCNC(=N)N)C(=O)O)[C@@H](C)CC` [MyGu1, RRAIFASIRGYLGLRKR] (H-RRAIFASIRGYLGLRKR-OH; N-terminus and C-terminus assumed), for which the “inhibitory activity (asterisk)” value is recorded as 881.* RRAIFASIRGYLGLRKR.
As for `CC[C@H](C)[C@H](NC(=O)[C@H](CCCCN)NC(=O)[C@H](CS)NC(=O)[C@H](CCCCN)NC(=O)[C@H](CC(C)C)NC(=O)[C@H](CC(N)=O)NC(=O)[C@H](CC(=O)O)NC(=O)[C@H](CC(C)C)NC(=O)[C@H](CC(C)C)NC(=O)[C@@H](NC(=O)[C@@H](NC(=O)[C@H](C)NC(=O)[C@@H](NC(=O)[C@H](CC(N)=O)NC(=O)[C@H](CCCCN)NC(=O)[C@H](C)NC(=O)[C@@H](NC(=O)[C@H](CC(N)=O)NC(=O)[C@H](CCCCN)NC(=O)[C@H](C)NC(=O)[C@@H](NC(=O)[C@H](CC(=O)O)NC(=O)[C@H](CCSC)NC(=O)[C@H](Cc1ccccc1)NC(=O)CN)[C@@H](C)O)C(C)C)C(C)C)C(C)C)[C@@H](C)O)C(=O)N[C@H](C(=O)N[C@@H](CCCCN)C(=O)N[C@@H](C)C(=O)N[C@@H](CS)C(=O)O)[C@@H](C)O` [OdMa13] (H-GFMDTAKNVAKNVAVTLLDNLKCKITKAC-OH; N-terminus and C-terminus assumed), the “inhibitory activity (asterisk)” value is reported as 1095.* GFMDTAKNVAKNVAVTLLDNLKCKITKAC.
As to `CC[C@H](C)[C@H](NC(=O)CNC(=O)[C@H](CCCNC(=N)N)NC(=O)[C@H](CCCCN)NC(=O)[C@H](CCCCN)NC(=O)[C@H](CCCNC(=N)N)NC(=O)[C@@H]1CCCN1C(=O)[C@@H](NC(=O)[C@H](CCSC)NC(=O)[C@H](CC(C)C)NC(=O)[C@@H](N)CCCCN)[C@@H](C)CC)C(=O)N[C@@H](Cc1ccccc1)C(=O)NCC(=O)NCC(=O)N[C@@H](CC(C)C)C(=O)N[C@@H](CC(C)C)C(=O)N[C@@H](CCCCN)C(=O)N[C@H](C(=O)NCC(=O)N[C@@H](CCCCN)C(=O)N[C@@H](CCCCN)C(=O)N[C@H](C(=O)N[C@@H](C)C(=O)N[C@@H](CS)C(=O)NCC(=O)N[C@@H](CC(C)C)C(=O)N[C@@H](CO)C(=O)NCC(=O)N[C@@H](CC(C)C)C(=O)N[C@@H](CS)C(=O)O)[C@@H](C)CC)C(C)C` [OdTo4] (H-KLMIPRKKRGIFGGLLKVGKKIACGLSGLC-OH; N-terminus and C-terminus assumed), the “inhibitory activity (asterisk)” value is listed as 190.* KLMIPRKKRGIFGGLLKVGKKIACGLSGLC.
With `CC(C)C[C@H](NC(=O)CN)C(=O)N[C@@H](CC(C)C)C(=O)NCC(=O)N[C@@H](CCCCN)C(=O)N[C@H](C(=O)N[C@@H](CC(C)C)C(=O)NCC(=O)N[C@H](C(=O)NCC(=O)N[C@@H](CCCCN)C(=O)N[C@@H](CCCCN)C(=O)N[C@H](C(=O)N[C@@H](CC(C)C)C(=O)N[C@@H](CS)C(=O)NCC(=O)N[C@H](C(=O)N[C@H](C(=O)NCC(=O)N[C@@H](CCCNC(=N)N)C(=O)N[C@@H](CCC(=O)O)C(=O)N[C@@H](CCCNC(=N)N)C(=O)N[C@@H](CS)C(=O)N[C@@H](CCC(N)=O)C(=O)O)[C@@H](C)O)C(C)C)C(C)C)C(C)C)C(C)C` [PeNi5] (H-GLLGKVLGVGKKVLCGVTGRERCQ-OH; N-terminus and C-terminus assumed) the figure was 359.* GLLGKVLGVGKKVLCGVTGRERCQ; with `CC[C@H](C)[C@H](NC(=O)[C@@H](N)C(C)C)C(=O)N1CCC[C@H]1C(=O)N[C@@H](Cc1ccccc1)C(=O)N[C@H](C(=O)N[C@@H](C)C(=O)N[C@@H](CO)C(=O)N[C@H](C(=O)N[C@@H](C)C(=O)N[C@@H](C)C(=O)N[C@@H](CCC(=O)O)C(=O)N[C@@H](CCSC)C(=O)N[C@@H](CCSC)C(=O)N[C@@H](Cc1c[nH]cn1)C(=O)N[C@@H](Cc1c[nH]cn1)C(=O)N[C@H](C(=O)N[C@@H](Cc1ccc(O)cc1)C(=O)N[C@@H](CS)C(=O)N[C@@H](C)C(=O)N[C@@H](C)C(=O)N[C@@H](CO)C(=O)N[C@@H](CCCCN)C(=O)N[C@@H](CCCNC(=N)N)C(=O)N[C@@H](CS)C(=O)N[C@@H](CCCCN)C(=O)N[C@@H](CC(N)=O)C(=O)O)C(C)C)C(C)C)C(C)C` [PeNi7] (H-VIPFVASVAAEMMHHVYCAASKRCKN-OH; N-terminus and C-terminus assumed), 1088.* VIPFVASVAAEMMHHVYCAASKRCKN.
The same measure for `CC[C@H](C)[C@H](NC(=O)CN)C(=O)N[C@@H](CC(C)C)C(=O)N[C@@H](CC(C)C)C(=O)N[C@@H](CC(N)=O)C(=O)N[C@H](C(=O)N[C@@H](CC(C)C)C(=O)N[C@@H](CCCCN)C(=O)NCC(=O)N[C@@H](C)C(=O)N[C@@H](C)C(=O)N[C@@H](CCCCN)C(=O)N[C@@H](CC(N)=O)C(=O)N[C@H](C(=O)N[C@@H](C)C(=O)NCC(=O)N[C@H](C(=O)N[C@@H](CC(C)C)C(=O)N[C@@H](CC(C)C)C(=O)N[C@@H](CC(=O)O)C(=O)N[C@@H](CCCCN)C(=O)N[C@@H](CC(C)C)C(=O)N[C@@H](CCCCN)C(=O)N[C@@H](CS)C(=O)N[C@@H](CCCCN)C(=O)N[C@H](C(=O)N[C@H](C(=O)NCC(=O)NCC(=O)N[C@@H](CS)C(=O)O)[C@@H](C)O)[C@@H](C)CC)C(C)C)C(C)C)[C@@H](C)O` [PeNi8] (H-GILLNTLKGAAKNVAGVLLDKLKCKITGGC-OH; N-terminus and C-terminus assumed): 1097.* GILLNTLKGAAKNVAGVLLDKLKCKITGGC.
With `CC[C@H](C)[C@H](NC(=O)[C@H](CO)NC(=O)[C@@H]1CCCN1C(=O)[C@H](CC(C)C)NC(=O)[C@@H](NC(=O)[C@H](CCCCN)NC(=O)[C@H](C)NC(=O)[C@H](C)NC(=O)[C@H](CC(C)C)NC(=O)CNC(=O)[C@H](C)NC(=O)[C@@H](NC(=O)[C@@H](NC(=O)[C@@H]1CCCN1C(=O)[C@H](CC(C)C)NC(=O)[C@@H](N)Cc1ccccc1)C(C)C)C(C)C)C(C)C)C(=O)N[C@H](C(=O)N[C@@H](CS)C(=O)N[C@@H](C)C(=O)N[C@H](C(=O)N[C@H](C(=O)N[C@@H](CCCCN)C(=O)N[C@@H](CCCCN)C(=O)N[C@@H](CS)C(=O)O)[C@@H](C)O)C(C)C)[C@@H](C)CC` [RaCa15] (H-FLPVVAGLAAKVLPSIICAVTKKC-OH; N-terminus and C-terminus assumed) the figure was 1098.* FLPVVAGLAAKVLPSIICAVTKKC; with `CC[C@H](C)[C@H](NC(=O)[C@H](CO)NC(=O)[C@@H]1CCCN1C(=O)[C@H](CC(C)C)NC(=O)[C@@H](NC(=O)[C@H](CCCCN)NC(=O)[C@H](C)NC(=O)[C@H](C)NC(=O)[C@H](CC(C)C)NC(=O)CNC(=O)[C@H](C)NC(=O)[C@@H](NC(=O)[C@@H](NC(=O)[C@@H]1CCCN1C(=O)[C@H](CC(C)C)NC(=O)[C@H](Cc1ccccc1)NC(=O)[C@H](CCCNC(=N)N)NC(=O)[C@H](CCC(N)=O)NC(=O)[C@H](CCC(=O)O)NC(=O)[C@@H](N)CCC(=O)O)C(C)C)C(C)C)C(C)C)C(=O)N[C@H](C(=O)N[C@@H](CS)C(=O)N[C@@H](C)C(=O)N[C@H](C(=O)N[C@H](C(=O)N[C@@H](CCCCN)C(=O)N[C@@H](CCCCN)C(=O)N[C@@H](CS)C(=O)O)[C@@H](C)O)C(C)C)[C@@H](C)CC` [RaSy2] (H-EEQRFLPVVAGLAAKVLPSIICAVTKKC-OH; N-terminus and C-terminus assumed), 673.* EEQRFLPVVAGLAAKVLPSIICAVTKKC.
